For eight compounds, IC50 results are on record in patent US10519140B2, “Indolin-2-one derivatives” (Hoffmann-La Roche Inc., priority 2015, dated 2019).

For this test, the target named is T1, mouse ENT-1 transporter (Mus musculus, UniProt Q9JIM1).
T1 construct: expressed in transfected cells
T1 sequence (Q9JIM1 1-460): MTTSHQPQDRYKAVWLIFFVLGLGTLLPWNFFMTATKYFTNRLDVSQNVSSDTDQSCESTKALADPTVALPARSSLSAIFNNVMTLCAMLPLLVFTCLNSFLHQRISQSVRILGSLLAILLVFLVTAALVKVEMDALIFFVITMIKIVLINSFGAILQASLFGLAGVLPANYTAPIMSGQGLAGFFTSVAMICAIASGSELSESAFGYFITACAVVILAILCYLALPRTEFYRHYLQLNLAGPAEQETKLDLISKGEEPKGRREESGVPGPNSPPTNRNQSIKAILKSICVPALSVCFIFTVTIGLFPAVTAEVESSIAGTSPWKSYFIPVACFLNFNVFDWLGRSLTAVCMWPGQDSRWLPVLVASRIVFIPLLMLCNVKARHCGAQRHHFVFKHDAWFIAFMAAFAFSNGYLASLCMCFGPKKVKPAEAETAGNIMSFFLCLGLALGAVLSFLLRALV
Description: Adenosine transport activity (ENT1, [3H]-adenosine uptake inhibition). The class given is cell-based. As to conditions: stable cells expressing mouse ENT-1; [2,8-3H]-adenosine 6 nM, 20 min. A digest of the protocol: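 Stable mammalian cells expressing mouse ENT1 are seeded at 60,000 cells/well and washed into HEPES-Tris pH 7.4 uptake buffer. Compounds (1% DMSO) are added at RT, immediately followed by 6 nM [3H]-adenosine for 20 min. Cell-associated radioactivity is counted by scintillation after ice-cold washes, with nonspecific uptake defined by 10 μM NBTI.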

What is called IC50 is the point on the concentration scale where inhibition reaches its midpoint. Read a low IC50 as greater potency in that assay. Turning to `Cc1ncc(-c2ccc3c(c2)N(c2cnc4c(c2)C(C)(C)C(=O)N4C)C(=O)C3(C)C)cn1` [Example 54, 5-(3,3-Dimethyl-6-(2-methylpyrimidin-5-yl)-2-oxoindolin-1-yl)-1,3,3-trimethyl-1H-pyrrolo[2,3-b]pyridin-2(3H)-one], the IC50 was 23.9 nM.

On to `Cc1ncc(-c2ccc3c(c2)N(c2cnc(-n4ccnc4C)cn2)C(=O)C3(C)C)cn1` [Example 50, 3,3-Dimethyl-1-(5-(2-methyl-1H-imidazol-1-yl)pyrazin-2-yl)-6-(2-methylpyrimidin-5-yl)indolin-2-one], for which inhibition was half-maximal at 31.1 nM (IC50).

In the case of `Cc1ncc(-c2ccc3c(c2)N(c2ccc4c(n2)N(C)C(=O)C4(C)C)C(=O)C3(C)C)cn1` [Example 39, 6-(3,3-Dimethyl-6-(2-methylpyrimidin-5-yl)-2-oxoindolin-1-yl)-1,3,3-trimethyl-1H-pyrrolo[2,3-b]pyridin-2(3H)-one], the IC50 turned out to be 26.9 nM.

Regarding `Cc1ncc(-c2ccc3c(c2)N(c2cncc(N4CCOCC4)n2)C(=O)C3(C)C)cn1` [Example 1, 3,3-Dimethyl-6-(2-methylpyrimidin-5-yl)-1-(6-morpholinopyrazin-2-yl)indolin-2-one], the midpoint of inhibition, the IC50, lay at 39 nM.

`Cc1ncc(-c2ccc3c(c2)N(c2cncc(N4CCCC4=O)n2)C(=O)C3(C)C)cn1` [Example 3, 3,3-Dimethyl-6-(2-methylpyrimidin-5-yl)-1-(6-(2-oxopyrrolidin-1-yl)pyrazin-2-yl)indolin-2-one] gave an IC50 of 57 nM.

`Cc1ncc(-c2ccc3c(c2)N(c2cnc(C)c(N4CCOC4=O)n2)C(=O)C3(C)C)cn1` [Example 20, 3-(6-(3,3-Dimethyl-6-(2-methylpyrimidin-5-yl)-2-oxoindolin-1-yl)-3-methylpyrazin-2-yl)oxazolidin-2-one] yielded an IC50 of 16.5 nM.

On to `Cc1ncc(-c2ccc3c(c2)N(c2cnc(C)c(N4CCOCC4)n2)C(=O)C3(C)C)cn1` [Example 18, 3,3-Dimethyl-1-(5-methyl-6-morpholinopyrazin-2-yl)-6-(2-methylpyrimidin-5-yl)indolin-2-one], for which the IC50 is 97 nM.

For the compound `Cc1ncc(-c2ccc3c(c2)N(c2cncc(N4CCOC4=O)n2)C(=O)C3(C)C)cn1` [Example 15, 3-(6-(3,3-Dimethyl-6-(2-methylpyrimidin-5-yl)-2-oxoindolin-1-yl)pyrazin-2-yl)oxazolidin-2-one], the IC50 is 26 nM.
